In ChEMBL document CHEMBL3991601, “The target landscape of clinical kinase drugs” (Science, 2017):
Activity calls are given as the source filed them. Rule as the data show it, for most assays here: actives have a measured Kd and inactives only a lower limit.

Experiments:
[1] = target: Mitogen-activated protein kinase kinase kinase kinase 5 (Homo sapiens, UniProt Q9Y4K4)
[2] = target: Bone morphogenetic protein receptor type-1B (Homo sapiens, UniProt O00238)
[3] = target: T1, Glycogen phosphorylase, liver form (Homo sapiens, UniProt P06737); format: subcellular, K-562, COLO 205, SK-N-BE(2) and MV-4-11, Cell lysate; conditions: read-out: Kd apparent
T1 sequence (P06737 whole entry): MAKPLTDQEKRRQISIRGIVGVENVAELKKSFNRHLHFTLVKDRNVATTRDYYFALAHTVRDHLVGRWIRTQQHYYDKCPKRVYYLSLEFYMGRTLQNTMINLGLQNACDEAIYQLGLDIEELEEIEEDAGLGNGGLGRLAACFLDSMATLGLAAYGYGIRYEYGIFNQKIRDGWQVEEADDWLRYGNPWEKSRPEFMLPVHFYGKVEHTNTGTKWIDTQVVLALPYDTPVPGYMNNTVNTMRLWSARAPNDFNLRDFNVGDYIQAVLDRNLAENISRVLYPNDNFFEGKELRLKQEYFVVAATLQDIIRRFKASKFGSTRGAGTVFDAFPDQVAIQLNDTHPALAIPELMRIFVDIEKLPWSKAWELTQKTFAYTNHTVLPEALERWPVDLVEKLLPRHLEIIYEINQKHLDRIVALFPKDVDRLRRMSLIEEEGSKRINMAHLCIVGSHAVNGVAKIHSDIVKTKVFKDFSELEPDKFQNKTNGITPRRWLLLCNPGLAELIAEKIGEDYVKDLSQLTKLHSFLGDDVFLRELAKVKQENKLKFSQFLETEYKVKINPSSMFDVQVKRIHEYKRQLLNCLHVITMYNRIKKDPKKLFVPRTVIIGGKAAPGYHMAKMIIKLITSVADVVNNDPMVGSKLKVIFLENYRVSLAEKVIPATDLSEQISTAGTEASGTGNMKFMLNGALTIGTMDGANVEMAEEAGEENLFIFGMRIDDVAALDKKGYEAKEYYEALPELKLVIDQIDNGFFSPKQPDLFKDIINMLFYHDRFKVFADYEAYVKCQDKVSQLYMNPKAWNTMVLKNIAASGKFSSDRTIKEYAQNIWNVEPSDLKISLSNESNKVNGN

[4] = target: T2, Mitogen-activated protein kinase kinase kinase kinase 2 (Homo sapiens, UniProt Q12851)
T2 sequence (Q12851 whole entry): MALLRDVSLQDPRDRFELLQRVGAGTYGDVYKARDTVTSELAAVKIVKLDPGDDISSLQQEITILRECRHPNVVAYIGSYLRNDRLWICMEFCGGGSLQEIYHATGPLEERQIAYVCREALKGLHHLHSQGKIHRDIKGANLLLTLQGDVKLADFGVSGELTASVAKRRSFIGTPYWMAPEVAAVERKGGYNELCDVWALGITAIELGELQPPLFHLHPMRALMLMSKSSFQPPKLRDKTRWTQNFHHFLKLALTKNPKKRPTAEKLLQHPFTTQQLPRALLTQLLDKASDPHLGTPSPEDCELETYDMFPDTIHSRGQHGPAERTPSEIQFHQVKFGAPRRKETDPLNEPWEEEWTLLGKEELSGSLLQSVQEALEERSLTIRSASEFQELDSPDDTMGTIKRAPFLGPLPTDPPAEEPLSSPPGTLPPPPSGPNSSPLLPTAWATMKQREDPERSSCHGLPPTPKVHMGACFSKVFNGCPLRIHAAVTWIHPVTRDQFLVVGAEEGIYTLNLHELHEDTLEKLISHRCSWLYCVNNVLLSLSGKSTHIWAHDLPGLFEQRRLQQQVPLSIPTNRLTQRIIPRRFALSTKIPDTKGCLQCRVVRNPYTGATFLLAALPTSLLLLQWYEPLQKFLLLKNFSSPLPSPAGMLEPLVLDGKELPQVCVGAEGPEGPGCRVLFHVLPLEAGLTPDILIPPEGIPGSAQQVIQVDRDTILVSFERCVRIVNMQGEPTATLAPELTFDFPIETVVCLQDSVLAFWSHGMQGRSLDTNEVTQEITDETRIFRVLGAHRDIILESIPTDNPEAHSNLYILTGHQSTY

[5] = target: T3, ATP-dependent RNA helicase DDX1 (Homo sapiens, UniProt Q92499)
T3 sequence (Q92499 whole entry): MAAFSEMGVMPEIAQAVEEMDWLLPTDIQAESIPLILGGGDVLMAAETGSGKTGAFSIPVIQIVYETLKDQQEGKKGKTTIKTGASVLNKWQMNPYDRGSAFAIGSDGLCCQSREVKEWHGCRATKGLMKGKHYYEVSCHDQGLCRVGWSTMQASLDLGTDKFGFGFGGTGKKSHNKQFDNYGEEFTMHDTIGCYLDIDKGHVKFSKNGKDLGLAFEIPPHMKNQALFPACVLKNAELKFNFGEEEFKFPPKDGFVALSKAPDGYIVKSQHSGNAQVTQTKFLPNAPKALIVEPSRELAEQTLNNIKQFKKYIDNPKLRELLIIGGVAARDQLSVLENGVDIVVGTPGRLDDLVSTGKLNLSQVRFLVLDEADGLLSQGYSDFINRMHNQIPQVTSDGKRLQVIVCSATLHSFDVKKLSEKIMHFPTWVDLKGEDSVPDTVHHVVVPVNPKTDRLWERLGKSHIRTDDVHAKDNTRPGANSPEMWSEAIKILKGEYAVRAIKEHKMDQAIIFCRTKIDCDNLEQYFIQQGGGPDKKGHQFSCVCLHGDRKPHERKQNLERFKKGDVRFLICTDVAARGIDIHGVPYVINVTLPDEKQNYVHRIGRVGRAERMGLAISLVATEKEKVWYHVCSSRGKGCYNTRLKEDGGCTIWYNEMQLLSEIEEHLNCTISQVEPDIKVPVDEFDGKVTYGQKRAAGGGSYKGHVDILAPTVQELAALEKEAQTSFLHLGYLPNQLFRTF

[6] = target: T4, Interleukin-1 receptor-associated kinase 4 (Homo sapiens, UniProt Q9NWZ3)
T4 sequence (Q9NWZ3 whole entry): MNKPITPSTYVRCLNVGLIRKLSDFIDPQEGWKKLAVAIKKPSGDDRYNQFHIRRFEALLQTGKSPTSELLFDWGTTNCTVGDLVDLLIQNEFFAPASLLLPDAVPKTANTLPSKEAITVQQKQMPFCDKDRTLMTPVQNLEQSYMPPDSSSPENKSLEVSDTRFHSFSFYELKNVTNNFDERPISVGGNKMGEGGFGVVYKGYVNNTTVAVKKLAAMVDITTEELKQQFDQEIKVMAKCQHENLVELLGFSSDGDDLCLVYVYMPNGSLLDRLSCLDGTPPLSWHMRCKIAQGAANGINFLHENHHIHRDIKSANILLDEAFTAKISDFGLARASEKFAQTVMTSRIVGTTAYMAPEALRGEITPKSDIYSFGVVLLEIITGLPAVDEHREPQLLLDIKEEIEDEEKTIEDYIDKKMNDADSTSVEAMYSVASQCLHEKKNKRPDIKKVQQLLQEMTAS
Also: in the data inactive means no Kd found up to 30 µM.

Chain of Mitogen-activated protein kinase kinase kinase kinase 5 (Q9Y4K4 whole entry): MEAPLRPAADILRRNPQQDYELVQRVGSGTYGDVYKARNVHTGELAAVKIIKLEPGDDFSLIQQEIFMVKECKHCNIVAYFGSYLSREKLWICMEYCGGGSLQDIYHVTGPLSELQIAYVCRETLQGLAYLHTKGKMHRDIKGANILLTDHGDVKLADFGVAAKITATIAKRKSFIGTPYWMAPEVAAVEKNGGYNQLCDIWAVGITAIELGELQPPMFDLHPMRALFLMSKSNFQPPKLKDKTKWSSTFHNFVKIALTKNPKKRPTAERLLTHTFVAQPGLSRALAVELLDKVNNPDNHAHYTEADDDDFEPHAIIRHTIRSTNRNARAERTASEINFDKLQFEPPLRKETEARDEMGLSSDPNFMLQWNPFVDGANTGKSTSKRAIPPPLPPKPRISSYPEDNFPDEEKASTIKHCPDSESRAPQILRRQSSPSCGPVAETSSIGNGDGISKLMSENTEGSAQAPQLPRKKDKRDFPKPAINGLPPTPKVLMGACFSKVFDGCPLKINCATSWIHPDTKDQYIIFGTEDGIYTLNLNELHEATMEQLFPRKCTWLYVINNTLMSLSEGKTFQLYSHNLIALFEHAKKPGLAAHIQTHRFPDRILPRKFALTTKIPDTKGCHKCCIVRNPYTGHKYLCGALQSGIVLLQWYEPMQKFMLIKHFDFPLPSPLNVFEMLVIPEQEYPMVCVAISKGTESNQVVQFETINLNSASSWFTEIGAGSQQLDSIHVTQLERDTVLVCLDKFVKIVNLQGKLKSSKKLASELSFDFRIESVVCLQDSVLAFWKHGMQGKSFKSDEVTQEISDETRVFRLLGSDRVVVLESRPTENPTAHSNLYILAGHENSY
Chain of Bone morphogenetic protein receptor type-1B (O00238 whole entry): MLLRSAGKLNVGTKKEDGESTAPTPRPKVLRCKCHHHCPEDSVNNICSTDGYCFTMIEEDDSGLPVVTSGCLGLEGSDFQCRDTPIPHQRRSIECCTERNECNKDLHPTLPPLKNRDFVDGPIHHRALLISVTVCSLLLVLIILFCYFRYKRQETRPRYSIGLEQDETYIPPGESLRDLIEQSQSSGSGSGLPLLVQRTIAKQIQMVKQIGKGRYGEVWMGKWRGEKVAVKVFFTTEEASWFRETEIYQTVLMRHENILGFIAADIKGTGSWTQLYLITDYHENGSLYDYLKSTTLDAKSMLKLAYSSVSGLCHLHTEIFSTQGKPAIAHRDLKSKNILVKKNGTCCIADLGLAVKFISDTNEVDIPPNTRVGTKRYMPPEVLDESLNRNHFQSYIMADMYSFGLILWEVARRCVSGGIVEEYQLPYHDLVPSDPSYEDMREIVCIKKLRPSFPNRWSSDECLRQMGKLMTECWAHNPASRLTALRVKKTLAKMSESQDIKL

SMILES	Kd [1]	Kd [2]	Kd [3]	Kd [4]	Kd [5]	Kd [6]
Cc1c(F)cc(C(=O)NC2CC2)cc1-c1ccc(C(=O)NCC(C)(C)C)cn1 [LOSMAPIMOD]	> 30 µM (inactive)	> 30 µM (inactive)	> 30 µM (inactive)	> 30 µM (inactive)	> 30 µM (inactive)	> 30 µM (inactive)
CCn1c(=O)c(-c2cc[nH]n2)cc2c(C)nc(N)nc21 [VOXTALISIB]	> 30 µM (inactive)	> 30 µM (inactive)	> 30 µM (inactive)	> 30 µM (inactive)	> 30 µM (inactive)	> 30 µM (inactive)
CC(=O)Nc1cccc(-n2c(=O)n(C3CC3)c(=O)c3c(Nc4ccc(I)cc4F)n(C)c(=O)c(C)c32)c1 [TRAMETINIB]	> 30 µM (inactive)	> 30 µM (inactive)	> 30 µM (inactive)	> 30 µM (inactive)	> 30 µM (inactive)	> 30 µM (inactive)
CN1CC[C@@H](c2c(O)cc(O)c3c(=O)cc(-c4ccccc4Cl)oc23)[C@@H]1CO	> 30 µM (inactive)	> 30 µM (inactive)	> 30 µM (inactive)	> 30 µM (inactive)	> 30 µM (inactive)	> 30 µM (inactive)
O=c1sn(-c2cccc3ccccc23)c(=O)n1Cc1ccccc1 [TIDEGLUSIB]	> 30 µM (inactive)	> 30 µM (inactive)	> 30 µM (inactive)	> 30 µM (inactive)	> 30 µM (inactive)	> 30 µM (inactive)
COc1cc(OC)c(/C=C/S(=O)(=O)Cc2ccc(OC)c(NCC(=O)O)c2)c(OC)c1 [RIGOSERTIB]	> 30 µM (inactive)	> 30 µM (inactive)	> 30 µM (inactive)	> 30 µM (inactive)	> 30 µM (inactive)	> 30 µM (inactive)
C[C@@H](c1ccc2nccn2c1)n1nnc2ncc(-c3cnn(C)c3)nc21 [SAVOLITINIB]	> 30 µM (inactive)	> 30 µM (inactive)	> 30 µM (inactive)	> 30 µM (inactive)	> 30 µM (inactive)	> 30 µM (inactive)
CN(C)C(=O)c1cc2cnc(Nc3ccc(N4CCNCC4)cn3)nc2n1C1CCCC1 [RIBOCICLIB]	> 30 µM (inactive)	> 30 µM (inactive)	> 30 µM (inactive)	> 30 µM (inactive)	> 30 µM (inactive)	> 30 µM (inactive)
CC[C@H](Nc1ncnc2[nH]cnc12)c1nc2cccc(F)c2c(=O)n1-c1ccccc1 [IDELALISIB]	> 30 µM (inactive)	> 30 µM (inactive)	> 30 µM (inactive)	> 30 µM (inactive)	> 30 µM (inactive)	> 30 µM (inactive)
COC(=O)N[C@@H](C)CNc1nccc(-c2cn(C(C)C)nc2-c2cc(Cl)cc(NS(C)(=O)=O)c2F)n1 [ENCORAFENIB]	> 30 µM (inactive)	> 30 µM (inactive)	> 30 µM (inactive)	> 30 µM (inactive)	> 30 µM (inactive)	> 30 µM (inactive)
C1=C/COCc2cc(ccc2OCCN2CCCC2)Nc2nccc(n2)-c2cccc(c2)COC/1 [PACRITINIB]	> 30 µM (inactive)	> 30 µM (inactive)	> 30 µM (inactive)	3.72 µM (active)	> 30 µM (inactive)	> 30 µM (inactive)
COCCNCc1ccc(-c2cc3nccc(Oc4ccc(NC(=S)NC(=O)Cc5ccc(F)cc5)cc4F)c3s2)nc1 [GLESATINIB]	> 30 µM (inactive)	> 30 µM (inactive)	> 30 µM (inactive)	> 30 µM (inactive)	> 30 µM (inactive)	> 30 µM (inactive)
N[C@@H]1CCCN(c2c(/C=C3\SC(=O)NC3=O)cccc2-c2ccccc2)C1	> 30 µM (inactive)	> 30 µM (inactive)	> 30 µM (inactive)	> 30 µM (inactive)	> 30 µM (inactive)	> 30 µM (inactive)
CNC(=O)CN1CCC(Oc2cc3c(Nc4cccc(Cl)c4F)ncnc3cc2OC)CC1 [SAPITINIB]	> 30 µM (inactive)	> 30 µM (inactive)	> 30 µM (inactive)	> 30 µM (inactive)	> 30 µM (inactive)	> 30 µM (inactive)

More lines, now with the values ahead:

Kd [1]	Kd [2]	Kd [3]	Kd [4]	Kd [5]	Kd [6]	SMILES
> 30 µM (inactive)	1.82 µM (active)	> 30 µM (inactive)	> 30 µM (inactive)	> 30 µM (inactive)	> 30 µM (inactive)	COc1cc(N2CCC(N3CCN(C)CC3)CC2)ccc1Nc1ncnc(Nc2ccccc2S(=O)(=O)C(C)C)n1 [ASP-3026]
50.2 µM (active)	> 30 µM (inactive)	> 30 µM (inactive)	3.53 µM (active)	> 30 µM (inactive)	> 30 µM (inactive)	CCN1CCN(Cc2ccc(-c3cc4c(N[C@H](C)c5ccccc5)ncnc4[nH]3)cc2)CC1 [AEE-788]
> 30 µM (inactive)	> 30 µM (inactive)	> 30 µM (inactive)	> 30 µM (inactive)	> 30 µM (inactive)	> 30 µM (inactive)	O=C1NC(=O)/C(=C/c2ccc3nccc(-c4ccncc4)c3c2)S1 [GSK-1059615]
> 30 µM (inactive)	> 30 µM (inactive)	> 30 µM (inactive)	> 30 µM (inactive)	> 30 µM (inactive)	> 30 µM (inactive)	CN1CCC(CNc2ccc3ncc(-c4cccc(OC(F)(F)F)c4)n3n2)CC1 [SGI-1776]
> 30 µM (inactive)	> 30 µM (inactive)	> 30 µM (inactive)	> 30 µM (inactive)	> 30 µM (inactive)	> 30 µM (inactive)	Cn1cc(-c2ccc3nnc(C(F)(F)c4ccc5ncccc5c4)n3n2)cn1 [JNJ-38877605]
